From ChEMBL document CHEMBL1201862, “PubChem BioAssay data set” (2004)
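Cells were grown in 96-well plates and exposed to each compound for 48 hours at five concentrations; endpoints were interpolated linearly between bracketing concentrations, or set to the highest concentration if not reached. The concentration for 50% growth inhibition is given as GI50.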 Calls of active or inactive are those of the source. Rule as the data show it: active = GI50 up to about 1.1 µM and inactive = higher.

Legend:
Experiment in all cases: NCI anticancer screen, dose series, 48 h
OVCAR-8 = tested on: OVCAR-8
UO-31 = tested on: UO-31
NCI-H23 = tested on: NCI-H23
A498 = tested on: A498
SK-MEL-5 = tested on: SK-MEL-5
NCI-H522 = tested on: NCI-H522
M14 = tested on: M14
HCT-116 = tested on: HCT-116
SNB-75 = tested on: SNB-75
SK-MEL-2 = tested on: SK-MEL-2
K562 = tested on: K562
HOP-62 = tested on: HOP-62
SW-620 = tested on: SW-620
NCI-H460 = tested on: NCI-H460
SN12C = tested on: SN12C
CCRF-CEM = tested on: CCRF-CEM

| SMILES | GI50 (OVCAR-8) | GI50 (UO-31) | GI50 (NCI-H23) | GI50 (A498) | GI50 (SK-MEL-5) | GI50 (NCI-H522) | GI50 (M14) | GI50 (HCT-116) | GI50 (SNB-75) | GI50 (SK-MEL-2) | GI50 (K562) | GI50 (HOP-62) | GI50 (SW-620) | GI50 (NCI-H460) | GI50 (SN12C) | GI50 (CCRF-CEM) |
| --- | --- | --- | --- | --- | --- | --- | --- | --- | --- | --- | --- | --- | --- | --- | --- | --- |
| CN(C)CCNC(=O)c1cccc2c(Nc3ccc(S(N)(=O)=O)cc3)c3ccccc3nc12 | 0.435 µM (active) | 1.87 µM (inactive) | 1.73 µM (inactive) | 1.69 µM (inactive) | 1.67 µM (inactive) | 0.252 µM (active) | 1.67 µM (inactive) | 0.356 µM (active) | 1.26 µM (inactive) | 1.59 µM (inactive) | 0.509 µM (active) | 3.1 µM (inactive) | 0.367 µM (active) | 0.337 µM (active) | 0.656 µM (active) |  |
| Cc1cc(NCCCCCCNc2cc(C)nc3cc(N(C)C)ccc23)c2ccc(N(C)C)cc2n1 | 31 µM (inactive) | 88.7 µM (inactive) | 25.1 µM (inactive) | > 100 µM (inactive) | 18.2 µM (inactive) | 10.6 µM (inactive) | 49.9 µM (inactive) | 10.7 µM (inactive) | 10 µM (inactive) | 32.2 µM (inactive) | 3.97 µM (inactive) | 54.2 µM (inactive) | 28.6 µM (inactive) | 13.3 µM (inactive) | 6 µM (inactive) | 22.3 µM (inactive) |
| COc1ccc(C(=O)O/N=C2\CCCC\C2=C/c2ccccc2)cc1 | > 100 µM (inactive) | > 100 µM (inactive) | 15.4 µM (inactive) | 74.8 µM (inactive) | > 100 µM (inactive) |  | > 100 µM (inactive) | > 100 µM (inactive) | 28.4 µM (inactive) |  | > 10 µM (inactive) | 45.3 µM (inactive) | > 100 µM (inactive) | > 100 µM (inactive) | > 100 µM (inactive) | > 100 µM (inactive) |
| Cc1ccc(NC(=O)CCc2cc(C(C)(C)C)nc(S)n2)cc1C | > 100 µM (inactive) | > 100 µM (inactive) | > 100 µM (inactive) | > 100 µM (inactive) | > 100 µM (inactive) | > 100 µM (inactive) | > 100 µM (inactive) | > 100 µM (inactive) | > 100 µM (inactive) | > 100 µM (inactive) | > 100 µM (inactive) | > 100 µM (inactive) | > 100 µM (inactive) | > 100 µM (inactive) | > 100 µM (inactive) | > 100 µM (inactive) |
| CCCCCCCCCCCCCCCCCC(CCCCCCCCCCCCCCCCC)OP(=O)(O)O | > 100 µM (inactive) | > 100 µM (inactive) | > 100 µM (inactive) | > 100 µM (inactive) | > 100 µM (inactive) | > 100 µM (inactive) | > 100 µM (inactive) | > 100 µM (inactive) | > 100 µM (inactive) | > 100 µM (inactive) | > 100 µM (inactive) |  | > 100 µM (inactive) | > 100 µM (inactive) | > 100 µM (inactive) | > 100 µM (inactive) |
| COC(=O)c1cc2ccccc2c2nc3ccccc3c(Cl)c12 | > 100 µM (inactive) |  | > 100 µM (inactive) | > 100 µM (inactive) | > 100 µM (inactive) | 32.9 µM (inactive) | > 100 µM (inactive) | 87.1 µM (inactive) | 98.4 µM (inactive) | > 100 µM (inactive) | > 100 µM (inactive) | > 100 µM (inactive) | > 100 µM (inactive) |  | > 100 µM (inactive) | > 100 µM (inactive) |
| C=CCSC[C@H](NC(=O)COc1ccccc1)C(=O)NC(C(=O)OCc1ccc([N+](=O)[O-])cc1)=C(C)C | 63 µM (inactive) | 33.6 µM (inactive) |  | 12.2 µM (inactive) | 27.6 µM (inactive) | 26.4 µM (inactive) | 47.9 µM (inactive) | > 100 µM (inactive) | 37.6 µM (inactive) | > 100 µM (inactive) | 44.5 µM (inactive) | > 100 µM (inactive) |  | 49.5 µM (inactive) | > 100 µM (inactive) | 45.5 µM (inactive) |
